Data on 15 compounds can be found in article PMC7265639, “Freshwater viral metagenome reveals novel and functional phage-borne antibiotic resistance genes” (Microbiome, 2020).

Converted amounts (≈) assume the structure as drawn.

The test system of assay [1] is T1, E. coli BL21 (DE3)-pET-28a(+)-HRVM-1.
T1 construct: BL21 (DE3) pET-28a(+)/blaHRVM-1-His6 transformant expressing HRVM-1 metallo-beta-lactamase
As to the kind of experiment: microbe, parasite or virus in culture. More on the design: species or system Escherichia coli BL21 (DE3) transformants; agar dilution MIC on Mueller-Hinton agar with 1 mM IPTG. The conditions noted are these: Escherichia coli, read-out: MIC (μg/mL) for E. coli strain / E. coli BL21 (DE3)-pET-28a(+)-HRVM-1. As for the experimental part:
(§1) When cultures of the cloned E. coli BL21 (DE3) cells reached approximately 0.6 at OD600, 1 mM isopropyl β-D-1-thiogalactopyranoside was added to induce expression of the blaHRV-1 or blaHRVM-1 gene followed by culture at 16 °C for 16 h. Susceptibility to benzylpenicillin, ampicillin, piperacillin, ticarcillin, oxacillin, cloxacillin, cephalothin, cefoxitin, cefotaxime, ceftazidime, cefepime, aztreonam, meropenem, imipenem (Sigma-Aldrich), and ertapenem (Merck & Co., Inc, Kenilworth, NJ, USA) against cloned E. coli BL21 (DE3) was assessed using the agar dilution technique in Mueller-Hinton agar (Difco Laboratories Inc., Detroit, MI, USA) including 1 mM IPTG with an inoculum of 10^5 CFU per spot. The PCR products were double-digested with NdeI and XhoI for the HRV-1 and NcoI and XhoI for the HRVM-1, and the digested DNAs were cloned into corresponding restriction enzyme-digested pET-28a(+) or pET-30a(+) vectors (Novagen, Madison, WI, USA). Recombinant plasmids [pET-30a(+)/blaHRV-1-His6 and pET-28a(+)/blaHRVM-1-His6] were transformed into E. coli BL21 (DE3) (Invitrogen, Carlsbad, CA, USA).

Assay [2] deals with T2, E. coli BL21 (DE3)-pET-30a(+)-HRV-1.
T2 construct: BL21 (DE3) pET-30a(+)/blaHRV-1-His6 transformant expressing HRV-1 beta-lactamase
As to the kind of experiment: microbe, parasite or virus in culture. On the set-up: species or system Escherichia coli BL21 (DE3) transformants; agar dilution MIC on Mueller-Hinton agar with 1 mM IPTG. The conditions noted are these: Escherichia coli, HRV1, read-out: MIC (μg/mL) for E. coli strain / E. coli BL21 (DE3)-pET-30a(+)-HRV-1. Here is the method:
as §1

Assay [3] concerns T3, HRV-1.
T3 construct: gene blaHRV-1; expressed in E. coli BL21(DE3) from pET-30a(+)/blaHRV-1-His6 (NdeI/XhoI); His6 tag removal by enterokinase stated; purified
As to the kind of experiment: UV spectrophotometric beta-lactam hydrolysis, steady-state kinetics. It counts as biochemical. The conditions noted are these: 10 mM MES pH 6.8, 30 °C, 20 μg/mL BSA.

Assay [4] has as its system T4, HRVM-1.
T4 construct: gene blaHRVM-1; expressed in E. coli BL21(DE3) from pET-28a(+)/blaHRVM-1-His6 (NcoI/XhoI); His6 tag removal by enterokinase stated; purified
The assay is described as above. It counts as biochemical. The conditions noted are these: 50 mM MES pH 7.0, 100 μM ZnCl2, 100 μg/mL BSA, 30 °C. The text has this:
UV spectrophotometric beta-lactam hydrolysis, steady-state kinetics on HRVM-1 | the kcat/km of HRVM-1 for imipenem

For `CO/N=C(\C(=O)N[C@@H]1C(=O)N2C(C(=O)O)=C(COC(C)=O)CS[C@H]12)c1csc(N)n1` [cefotaxime], the MIC in assay [1] and in assay [2] was 8 µg/mL (≈ 17.6 µM) throughout. Further, the Km (as a rule, the concentration of substrate that gives half-maximal velocity) in assay [3] was 11.74 ± 0.01 µM.
For the compound `CC(=O)OCC1=C(C(=O)O)N2C(=O)[C@@H](NC(=O)Cc3cccs3)[C@H]2SC1` [Cephalothin], the MIC in assay [1] and in assay [2] was 32 µg/mL (≈ 80.7 µM) each time.
On to `CC1(C)S[C@@H]2[C@H](NC(=O)[C@H](C(=O)O)c3ccsc3)C(=O)N2[C@H]1C(=O)O` [Ticarcillin], for which the MIC in assay [1] and in assay [2] was 32 µg/mL (≈ 83.2 µM) throughout.
With `C[C@H]1[C@H](NC(=O)/C(=N\OC(C)(C)C(=O)O)c2csc(N)n2)C(=O)N1S(=O)(=O)O` [Aztreonam], the MIC in assay [1] and in assay [2] was 8 µg/mL (≈ 18.4 µM) throughout.
In the case of `C[C@@H](O)[C@H]1C(=O)N2C(C(=O)O)=C(S[C@@H]3CN[C@H](C(=O)Nc4cccc(C(=O)O)c4)C3)[C@H](C)[C@H]12` [Ertapenem], the MIC in assay [1] and in assay [2] was 0.5 µg/mL (≈ 1.05 µM) in each case.
Regarding `C[C@@H](O)[C@H]1C(=O)N2C(C(=O)O)=C(S[C@@H]3CN[C@H](C(=O)N(C)C)C3)[C@H](C)[C@H]12` [Meropenem], the MIC in assay [1] and in assay [2] was 0.5 µg/mL (≈ 1.3 µM) each time.
Take `CC1(C)S[C@@H]2[C@H](NC(=O)[C@H](N)c3ccccc3)C(=O)N2[C@H]1C(=O)O` [Ampicillin]: the MIC in assay [1] stood at 32 µg/mL (≈ 91.6 µM); in assay [2], 64 µg/mL (≈ 183 µM).
As for `C[C@@H](O)[C@H]1C(=O)N2C(C(=O)O)=C(SCCN=CN)C[C@H]12` [imipenem], the MIC in assay [1] and in assay [2] was 0.5 µg/mL (≈ 1.67 µM) each time. Also, the Km in assay [4] is 5.42 ± 0.01 µM.
In the case of `CCN1CCN(C(=O)N[C@@H](C(=O)N[C@@H]2C(=O)N3[C@@H]2SC(C)(C)[C@@H]3C(=O)O)c2ccccc2)C(=O)C1=O` [Piperacillin], the MIC turned out to be 32 µg/mL (≈ 61.8 µM) in assay [1] and 64 µg/mL (≈ 124 µM) in assay [2].
The matching figures for `CO/N=C(\C(=O)N[C@@H]1C(=O)N2C(C(=O)[O-])=C(C[N+]3(C)CCCC3)CS[C@H]12)c1csc(N)n1` [Cefepime]: 4 µg/mL (≈ 8.32 µM) and 4 µg/mL (≈ 8.32 µM).
As to `CC(C)(O/N=C(\C(=O)N[C@@H]1C(=O)N2C(C(=O)[O-])=C(C[n+]3ccccc3)CS[C@H]12)c1csc(N)n1)C(=O)O` [ceftazidime], the MIC in assay [1] and in assay [2] was 8 µg/mL (≈ 14.6 µM) throughout. Further, the Km in assay [3] amounted to 12.15 ± 0.02 µM.
With `Cc1onc(-c2ccccc2)c1C(=O)N[C@@H]1C(=O)N2[C@@H]1SC(C)(C)[C@@H]2C(=O)O` [Oxacillin], the MIC in assay [1] came out at 128 µg/mL (≈ 319 µM); in assay [2] it was 256 µg/mL (≈ 638 µM).
On to `CO[C@@]1(NC(=O)Cc2cccs2)C(=O)N2C(C(=O)O)=C(COC(N)=O)CS[C@@H]21` [Cefoxitin], for which the MIC in assay [1] and in assay [2] was 4 µg/mL (≈ 9.36 µM) throughout.
With `Cc1onc(-c2ccccc2Cl)c1C(=O)N[C@@H]1C(=O)N2[C@@H]1SC(C)(C)[C@@H]2C(=O)O` [Cloxacillin], the MIC turned out to be 128 µg/mL (≈ 294 µM) in assay [1] and 256 µg/mL (≈ 587 µM) in assay [2].
Take `CC1(C)S[C@@H]2[C@H](NC(=O)Cc3ccccc3)C(=O)N2[C@H]1C(=O)O` [Benzylpenicillin]: the MIC came out at 256 µg/mL (≈ 766 µM) in assay [1] and 512 µg/mL (≈ 1530 µM) in assay [2].
